# Measurements published in patent US20020051978A1, “Methods and compositions for the identification, assessment, prevention and therapy of human cancers” (priority 2000, published 2002).
# Where two headings read alike, the source gives them in different places.
# Legend:
# [1] = system: 60 cancer cell lines (NCI 60 cancer cell line series); assay: NCI-DTP in vitro cancer screen, sulforhodamine B (SRB) growth inhibition, 48 hour exposure; type: cell-based, human; design: key to sensitivity class Ovarian OVCAR-8 CL6005 / sensitivity class Ovarian SK-OV-3 CL6011 / sensitivity class Prostate DU-145 CL11003 / sensitivity class NSCLC NCI-H522 CL1003 / sensitivity class Ovarian IGROV1 CL6010 / sensitivity class Ovarian OVCAR-4 CL6002 / sensitivity class Prostate PC-3(I) CL11001 / sensitivity class Renal A498 CL9013 / sensitivity class Renal SN12C CL9008: sensitivity class: 1 = Low, 2 = Medium, 3 = High
# Method in brief: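 Values come from the NCI-DTP screen database: -log GI50, the concentration giving 50% growth inhibition, derived from SRB cell-mass dose-response curves. Each line seeded at its own density, treated day 1 at five ten-fold-spaced doses in duplicate wells, stained after 48 h.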
# [2] = system: 60 cancer cell lines (NCI 60 cancer cell line series); conditions: cited from earlier work
smiles,measurement,setting,value
COc1cccc2c1C(=O)c1c(O)c3c(c(O)c1C2=O)C[C@@](O)(C(=O)CO)C[C@@H]3O[C@H]1C[C@H](N)[C@H](O)[C@H](C)O1 [Adriamycin],"classification of cell line as Low(1), Medium(2) or High(3) sensitivity to compound",[1]; CNS SF-539 CL12016,2
same,"classification of cell line as Low(1), Medium(2) or High(3) sensitivity to compound",[1]; CNS SNB-19 (CL12002),2
same,"classification of cell line as Low(1), Medium(2) or High(3) sensitivity to compound",[1]; CNS SNB-75(I) CL12005,2
same,"classification of cell line as Low(1), Medium(2) or High(3) sensitivity to compound",[1]; CNS U251(I) CL12009,2
same,"classification of cell line as Low(1), Medium(2) or High(3) sensitivity to compound",[1]; Colon COLO-250 CL4010,2
same,"classification of cell line as Low(1), Medium(2) or High(3) sensitivity to compound",[1]; Colon HCC-2998 (CL4002),2
same,"classification of cell line as Low(1), Medium(2) or High(3) sensitivity to compound",[1]; Colon HCT-15 CL4015,1
same,"classification of cell line as Low(1), Medium(2) or High(3) sensitivity to compound",[1]; Colon HCT-116 (CL4003),2
same,"classification of cell line as Low(1), Medium(2) or High(3) sensitivity to compound",[1]; Colon HT29(I) CL4001,2
same,"classification of cell line as Low(1), Medium(2) or High(3) sensitivity to compound",[1]; Colon KM12 (CL4017),2
same,"classification of cell line as Low(1), Medium(2) or High(3) sensitivity to compound",[1]; Colon SW-620 (CL4009),2
same,"classification of cell line as Low(1), Medium(2) or High(3) sensitivity to compound",[1]; Leukemia CCRF-CEM(I) (CL7003),3
same,"classification of cell line as Low(1), Medium(2) or High(3) sensitivity to compound",[1]; Leukemia HL-60(I) (CL7008),2
same,"classification of cell line as Low(1), Medium(2) or High(3) sensitivity to compound",[1]; Leukemia K562(I) CL7005,2
same,"classification of cell line as Low(1), Medium(2) or High(3) sensitivity to compound",[1]; Leukemia MOLT-4 (CL7006),3
same,"classification of cell line as Low(1), Medium(2) or High(3) sensitivity to compound",[1]; Leukemia RPMI-8226(I) (CL7010),2
same,"classification of cell line as Low(1), Medium(2) or High(3) sensitivity to compound",[1]; Leukemia SR CL7019,3
same,"classification of cell line as Low(1), Medium(2) or High(3) sensitivity to compound",[1]; Melanoma LOX IMVI CL10001,2
same,"classification of cell line as Low(1), Medium(2) or High(3) sensitivity to compound",[1]; Melanoma M14 (CL10014),2
same,"classification of cell line as Low(1), Medium(2) or High(3) sensitivity to compound",[1]; Melanoma MALME-3M CL10002,2
same,sensitivity class NSCLC NCI-H23(I) CL1001,"[1]; cell line NSCLC NCI-H23(I), CL1001",2
same,sensitivity class NSCLC NCI-H332M CL1017,"[1]; cell line NSCLC NCI-H332M, CL1017",1
same,sensitivity class NSCLC NCI-H460 CL1021,"[1]; cell line NSCLC NCI-H460, CL1021",3
same,sensitivity class NSCLC NCI-H522 CL1003,"[1]; cell line NSCLC NCI-H522, CL1003",2
same,sensitivity class Ovarian IGROV1 CL6010,"[1]; cell line Ovarian IGROV1, CL6010",2
same,sensitivity class Ovarian OVCAR-3 CL6001,"[1]; cell line Ovarian OVCAR-3, CL6001",2
same,sensitivity class Ovarian OVCAR-4 CL6002,"[1]; cell line Ovarian OVCAR-4, CL6002",1
same,sensitivity class Ovarian OVCAR-5 CL6003,"[1]; cell line Ovarian OVCAR-5, CL6003",1
same,sensitivity class Ovarian OVCAR-8 CL6005,"[1]; cell line Ovarian OVCAR-8, CL6005",2
same,sensitivity class Ovarian SK-OV-3 CL6011,"[1]; cell line Ovarian SK-OV-3, CL6011",2
same,sensitivity class Prostate DU-145 CL11003,"[1]; cell line Prostate DU-145, CL11003",2
same,sensitivity class Prostate PC-3(I) CL11001,"[1]; cell line Prostate PC-3(I), CL11001",2
same,sensitivity class Renal 786-O CL9018,"[1]; cell line Renal 786-O, CL9018",2
same,sensitivity class Renal A498 CL9013,"[1]; cell line Renal A498, CL9013",2
same,sensitivity class Renal ACHN CL9023,"[1]; cell line Renal ACHN, CL9023",2
same,sensitivity class Renal CAKI-1 CL9015,"[1]; cell line Renal CAKI-1, CL9015",2
same,sensitivity class Renal RXF-393 CL9016,"[1]; cell line Renal RXF-393, CL9016",2
same,sensitivity class Renal SN12C CL9008,"[1]; cell line Renal SN12C, CL9008",2
same,sensitivity class Renal TK10 CL9024,"[1]; cell line Renal TK10, CL9024",2
same,sensitivity class Renal UO-31 CL9004,"[1]; cell line Renal UO-31, CL9004",1
same,-Log (GI50),[2]; Breast BT-549 (CL5013),6.5
same,-Log (GI50),[2]; Breast HS-578T CL5006,6.7
same,-Log (GI50),[2]; Breast MCF7(I) (CL5001),7.8
same,-Log (GI50),[2]; Breast MCF7/ADRr (CL5002),4.8
same,-Log (GI50),[2]; Breast MDA-MB-231 CL5005,6.4
same,-Log (GI50),[2]; Breast MDA-MB-435 (CL5011),6.5
same,-Log (GI50),[2]; Breast MDA-N CL5012,6.5
same,-Log (GI50),[2]; Breast T-47D (CL5014),7.0
same,-Log (GI50),[2]; CNS SF-268 CL12014,7.0
same,-Log (GI50),[2]; CNS SF-295 CL12015,7.0
same,-Log (GI50),[2]; CNS SF-539 CL12016,7.2
same,-Log (GI50),[2]; CNS SNB-19 (CL12002),7.3
same,-Log (GI50),[2]; CNS SNB-75(I) CL12005,7.0
same,-Log (GI50),[2]; CNS U251(I) CL12009,7.3
same,-Log (GI50),[2]; Colon COLO-250 CL4010,6.7
same,-Log (GI50),[2]; Colon HCC-2998 (CL4002),6.7
same,-Log (GI50),[2]; Colon HCT-15 CL4015,5.9
same,-Log (GI50),[2]; Colon HCT-116 (CL4003),7.1
same,-Log (GI50),[2]; Colon HT29(I) CL4001,6.7
same,-Log (GI50),[2]; Colon KM12 (CL4017),6.5
same,-Log (GI50),[2]; Colon SW-620 (CL4009),7.1
same,-Log (GI50),[2]; Leukemia CCRF-CEM(I) (CL7003),7.5
same,-Log (GI50),[2]; Leukemia HL-60(I) (CL7008),7.3
same,-Log (GI50),[2]; Leukemia K562(I) CL7005,7.0
same,-Log (GI50),[2]; Leukemia MOLT-4 (CL7006),8.0
same,-Log (GI50),[2]; Leukemia RPMI-8226(I) (CL7010),7.3
same,-Log (GI50),[2]; Leukemia SR CL7019,7.8
same,-Log (GI50),[2]; Melanoma LOX IMVI CL10001,7.3
same,-Log (GI50),[2]; Melanoma M14 (CL10014),6.6
same,-Log (GI50),[2]; Melanoma MALME-3M CL10002,7.1
same,-Log (GI50),[2]; NCSLC NCI-H522 CL1003,7.2
same,-Log (GI50),[2]; NSCLC NCI-H23(I) CL1001,6.9
same,-Log (GI50),[2]; NSCLC NCI-H332M CL1017,6.3
same,-Log (GI50),[2]; NSCLC NCI-H460 CL1021,8.2
same,-Log (GI50),[2]; Ovarian IGROV1 CL6010,6.9
same,-Log (GI50),[2]; Ovarian OVCAR-3 CL6001,6.3
same,-Log (GI50),[2]; Ovarian OVCAR-4 CL6002,6.1
same,-Log (GI50),[2]; Ovarian OVCAR-5 CL6003,6.2
same,-Log (GI50),[2]; Ovarian OVCAR-8 CL6005,6.8
same,-Log (GI50),[2]; Ovarian SK-OV-3 CL6011,6.5
same,-Log (GI50),[2]; Prostate DU-145 CL11003,6.8
same,-Log (GI50),[2]; Prostate PC-3(I) CL11001,6.6
same,-Log (GI50),[2]; Renal 786-O CL9018,7.3
same,-Log (GI50),[2]; Renal A498 CL9013,6.9
same,-Log (GI50),[2]; Renal ACHN CL9023,7.2
same,-Log (GI50),[2]; Renal CAKI-1 CL9015,6.8
same,-Log (GI50),[2]; Renal RXF-393 CL9016,6.7
same,-Log (GI50),[2]; Renal SN12C CL9008,7.0
same,-Log (GI50),[2]; Renal TK10 CL9024,6.3
same,-Log (GI50),[2]; Renal UO-31 CL9004,6.1
